Experimental data as given in patent US20150105252A1, “SUBSTITUTED PYRAZOLES AS HERBICIDES” (E I DU PONT DE NEMOURS AND COMPANY, priority 2013, published 2015).

Assays:
corn [1] = assay: Test A preemergence; type: in vivo, Zea mays; conditions: 0 to 100 scale
In short: (§1)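 Visual injury rating, 0–100 (0 no effect, 100 complete control), vs untreated controls ~10 days after treatment in greenhouse. Pre: directed soil spray on seeded loam/sand. Post: 2–10 cm plants, 1–2 leaf stage. Formulation: non-phytotoxic solvent mix + surfactant.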

velvetleaf [2] = assay: Test A postemergence; type: in vivo, Abutilon theophrasti
In short: as §1

foxtail, giant [3] = assay: Test A preemergence; type: in vivo, Setaria faberii; conditions: 0 to 100 scale
In short: as §1

wheat [4] = assay: Test A postemergence; type: in vivo, Triticum aestivum
In short: as §1

wheat [5] = assay: Test A preemergence; type: in vivo, Triticum aestivum
In short: as §1

pigweed [6] = assay: Test A postemergence; type: in vivo, Amaranthus retroflexus
In short: as §1

morningglory [7] = assay: Test A postemergence; type: in vivo, Ipomoea spp.
In short: as §1

morningglory [8] = assay: Test A preemergence; type: in vivo, Ipomoea spp.; conditions: 0 to 100 scale
In short: as §1

crabgrass, large [9] = assay: Test A postemergence; type: in vivo, Digitaria sanguinalis
In short: as §1

velvetleaf [10] = assay: Test A preemergence; type: in vivo, Abutilon theophrasti; conditions: 0 to 100 scale
In short: as §1

barnyardgrass [11] = assay: Test A postemergence; type: in vivo, Echinochloa crus-galli; conditions: Postemergence
In short: as §1

barnyardgrass [12] = assay: Test A preemergence; type: in vivo, Echinochloa crus-galli; conditions: 0 to 100 scale
In short: as §1

foxtail, giant [13] = assay: Test A postemergence; type: in vivo, Setaria faberii
In short: as §1

crabgrass, large [14] = assay: Test A preemergence; type: in vivo, Digitaria sanguinalis; conditions: 0 to 100 scale
In short: as §1

corn [15] = assay: Test A postemergence; type: in vivo, Zea mays
In short: as §1

pigweed [16] = assay: Test A preemergence; type: in vivo, Amaranthus retroflexus; conditions: 0 to 100 scale
In short: as §1

rice = assay: Test B flood; type: in vivo, Oryza sativa; conditions: 250 g ai/ha, visual rating on 0 to 100 scale (0 no effect, 100 complete control), 13 to 15 days
Description: (§2) Seeds selected from rice (Oryza sativa), sedge, umbrella (small-flower umbrella sedge Cyperus difformis), ducksalad (Heteranthera limosa), and barnyardgrass (Echinochloa crus-galli) were grown to the 2-leaf stage for testing. At time of treatment, test pots were flooded to 3 cm above the soil surface, treated by application of test compounds directly to the paddy water, and then maintained at that water depth for the duration of the test.
(§3) Treated plants and controls were maintained in a greenhouse for 13 to 15 days, after which time all species were compared to controls and visually evaluated. Plant response ratings, summarized in Table B, are based on a scale of 0 to 100 where 0 is no effect and 100 is complete control. A dash (-) response means no test result.

barnyardgrass [17] = assay: Test B flood; type: in vivo, Echinochloa crus-galli; conditions: 250 g ai/ha, visual rating on 0 to 100 scale (0 no effect, 100 complete control), 13 to 15 days
Description: as §2, §3

sedge, umbrella = assay: Test B flood; type: in vivo, Cyperus difformis; conditions: 250 g ai/ha, visual rating on 0 to 100 scale (0 no effect, 100 complete control), 13 to 15 days
Description: as §2, §3

ducksalad = assay: Test B flood; type: in vivo, Heteranthera limosa; conditions: 250 g ai/ha, visual rating on 0 to 100 scale (0 no effect, 100 complete control), 13 to 15 days
Description: as §2, §3

[18] = Preemergence, 1000 g ai/ha, 0 no effect, 100 complete control
[19] = Postemergence, 1000 g ai/ha, visual rating after approx. 10 days, 0 to 100 scale (0 no effect, 100 complete control)
[20] = Preemergence, 1000 g ai/ha, 0 to 100 scale, 0 no effect, 100 complete control
[21] = preemergence, 500 g ai/ha, visual injury after approx. 10 days, 0 to 100 scale (0 no effect, 100 complete control)
[22] = 1000 g ai/ha, visual rating after approx. 10 days, 0 to 100 scale (0 no effect, 100 complete control)
[23] = Preemergence, 500 g ai/ha, 0 no effect, 100 complete control
[24] = preemergence, 125 g ai/ha, visual injury, approx. 10 days
[25] = Postemergence, 500 g ai/ha, visual rating after approx. 10 days, 0 to 100 scale (0 no effect, 100 complete control)
[26] = postemergence, 125 g ai/ha, about 10 days, visual rating on 0 to 100 scale (0 no effect, 100 complete control)

Compound: CCCCN(C)C(=O)c1cc(CC)n(Cc2cccc(OC(F)(F)F)c2)n1 [Compound 63]
- Corn plant response rating (corn [1]; [18]): 0
- Velvetleaf plant response rating (velvetleaf [2]; [19]): 30
- Foxtail, Giant plant response rating (foxtail, giant [3]; [18]): 0
- Wheat plant response rating (wheat [4]; [19]): 10
- Wheat plant response rating (wheat [5]; [20]): 0
- Wheat plant response rating (wheat [5]; [21]): 0
- Pigweed plant response rating (pigweed [6]; [19]): 70
- Morningglory plant response rating (morningglory [7]; [19]): 60
- Morningglory plant response rating (morningglory [8]; [18]): 0
- Crabgrass, Large plant response rating (crabgrass, large [9]; [19]): 10
- Velvetleaf plant response rating (velvetleaf [10]; [18]): 0
- Barnyardgrass plant response rating (barnyardgrass [11]; [22]): 0
- Barnyardgrass plant response rating (barnyardgrass [12]; [18]): 0
- Foxtail, Giant plant response rating (foxtail, giant [13]; [19]): 20
- Crabgrass, Large plant response rating (crabgrass, large [14]; [18]): 0
- Corn plant response rating (corn [15]; [19]): 20
- Pigweed plant response rating (pigweed [16]; [18]): 0

Compound: CCc1cc(C(=O)NC)nn1Cc1cccc(OC(F)(F)F)c1 [Compound 65]
- Corn plant response rating (corn [1]; [18]): 0
- Velvetleaf plant response rating (velvetleaf [2]; [19]): 30
- Foxtail, Giant plant response rating (foxtail, giant [3]; [18]): 70
- Wheat plant response rating (wheat [4]; [19]): 20
- Wheat plant response rating (wheat [5]; [20]): 0
- Wheat plant response rating (wheat [5]; [21]): 0
- Pigweed plant response rating (pigweed [6]; [19]): 70
- Morningglory plant response rating (morningglory [7]; [19]): 90
- Morningglory plant response rating (morningglory [8]; [18]): 70
- Crabgrass, Large plant response rating (crabgrass, large [9]; [19]): 50
- Velvetleaf plant response rating (velvetleaf [10]; [18]): 20
- Barnyardgrass plant response rating (barnyardgrass [11]; [22]): 50
- Barnyardgrass plant response rating (barnyardgrass [12]; [18]): 60
- Foxtail, Giant plant response rating (foxtail, giant [13]; [19]): 50
- Crabgrass, Large plant response rating (crabgrass, large [14]; [18]): 80
- Corn plant response rating (corn [15]; [19]): 30
- Pigweed plant response rating (pigweed [16]; [18]): 90

Compound: CCc1cc(C(=O)N(C)OC)nn1Cc1cccc(OC(F)(F)F)c1 [Compound 67]
- Corn plant response rating (corn [1]; [18]): 0
- Velvetleaf plant response rating (velvetleaf [2]; [19]): 30
- Foxtail, Giant plant response rating (foxtail, giant [3]; [18]): 90
- Wheat plant response rating (wheat [4]; [19]): 20
- Wheat plant response rating (wheat [5]; [20]): 0
- Wheat plant response rating (wheat [5]; [21]): 0
- Pigweed plant response rating (pigweed [6]; [19]): 40
- Morningglory plant response rating (morningglory [7]; [19]): 40
- Morningglory plant response rating (morningglory [8]; [18]): 0
- Crabgrass, Large plant response rating (crabgrass, large [9]; [19]): 30
- Velvetleaf plant response rating (velvetleaf [10]; [18]): 10
- Barnyardgrass plant response rating (barnyardgrass [11]; [22]): 20
- Barnyardgrass plant response rating (barnyardgrass [12]; [18]): 0
- Foxtail, Giant plant response rating (foxtail, giant [13]; [19]): 40
- Crabgrass, Large plant response rating (crabgrass, large [14]; [18]): 50
- Corn plant response rating (corn [15]; [19]): 30
- Pigweed plant response rating (pigweed [16]; [18]): 0

Compound: CCc1cc(C(=O)N(C)CC)nn1Cc1cccc(OC(F)(F)F)c1 [Compound 68]
- Corn plant response rating (corn [1]; [18]): 0
- Velvetleaf plant response rating (velvetleaf [2]; [19]): 40
- Foxtail, Giant plant response rating (foxtail, giant [3]; [18]): 60
- Wheat plant response rating (wheat [4]; [19]): 20
- Wheat plant response rating (wheat [5]; [20]): 0
- Wheat plant response rating (wheat [5]; [21]): 0
- Pigweed plant response rating (pigweed [6]; [19]): 60
- Morningglory plant response rating (morningglory [7]; [19]): 100
- Morningglory plant response rating (morningglory [8]; [18]): 0
- Crabgrass, Large plant response rating (crabgrass, large [9]; [19]): 30
- Velvetleaf plant response rating (velvetleaf [10]; [18]): 0
- Barnyardgrass plant response rating (barnyardgrass [11]; [22]): 30
- Barnyardgrass plant response rating (barnyardgrass [12]; [18]): 0
- Foxtail, Giant plant response rating (foxtail, giant [13]; [19]): 20
- Crabgrass, Large plant response rating (crabgrass, large [14]; [18]): 40
- Corn plant response rating (corn [15]; [19]): 30
- Pigweed plant response rating (pigweed [16]; [18]): 70

Compound: CCCNC(=O)c1cc(C)n(Oc2ccnc(C(F)(F)F)c2)n1 [Compound 80]
- Corn plant response rating (corn [1]; [23]): 0
- Corn plant response rating (corn [1]; [24]): 0
- Velvetleaf plant response rating (velvetleaf [2]; [25]): 50
- Velvetleaf plant response rating (velvetleaf [2]; [26]): 10
- Foxtail, Giant plant response rating (foxtail, giant [3]; [23]): 90
- Foxtail, Giant plant response rating (foxtail, giant [3]; [24]): 40
- Wheat plant response rating (wheat [4]; [25]): 10
- Wheat plant response rating (wheat [4]; [26]): 0
- Wheat plant response rating (wheat [5]; preemergence, 125 g ai/ha, visual injury, 0 to 100 scale, approx. 10 days): 0
- Wheat plant response rating (wheat [5]; [21]): 10
- Pigweed plant response rating (pigweed [6]; [25]): 60
- Pigweed plant response rating (pigweed [6]; [26]): 40
- Morningglory plant response rating (morningglory [7]; [25]): 70
- Morningglory plant response rating (morningglory [7]; [26]): 30
- Plant response rating, Rice (rice): 0
- Plant response rating, Barnyardgrass (barnyardgrass [17]): 0
- Morningglory plant response rating (morningglory [8]; [23]): 60
- Morningglory plant response rating (morningglory [8]; [24]): 20
- Crabgrass, Large plant response rating (crabgrass, large [9]; [25]): 70
- Crabgrass, Large plant response rating (crabgrass, large [9]; [26]): 10
- Velvetleaf plant response rating (velvetleaf [10]; [23]): 50
- Velvetleaf plant response rating (velvetleaf [10]; [24]): 0
- Plant response rating, Sedge, Umbrella (sedge, umbrella): 0
- Barnyardgrass plant response rating (barnyardgrass [11]; 125 g ai/ha, 0 to 100 scale, 0 no effect, 100 complete control): 10
- Barnyardgrass plant response rating (barnyardgrass [11]; 500 g ai/ha, visual rating after approx. 10 days, 0 to 100 scale (0 no effect, 100 complete control)): 40
- Barnyardgrass plant response rating (barnyardgrass [12]; [23]): 80
- Barnyardgrass plant response rating (barnyardgrass [12]; [24]): 10
- Plant response rating, Ducksalad (ducksalad): 0
- Foxtail, Giant plant response rating (foxtail, giant [13]; [25]): 30
- Foxtail, Giant plant response rating (foxtail, giant [13]; [26]): 10
- Crabgrass, Large plant response rating (crabgrass, large [14]; [23]): 100
- Crabgrass, Large plant response rating (crabgrass, large [14]; [24]): 50
- Corn plant response rating (corn [15]; [25]): 30
- Corn plant response rating (corn [15]; [26]): 10
- Pigweed plant response rating (pigweed [16]; [23]): 100
- Pigweed plant response rating (pigweed [16]; [24]): 60
